{
  "source": "patent USRE46792E1",
  "about": "“Oxazole compound and pharmaceutical composition” (Otsuka Pharmaceutical Co., Ltd., priority 2005, dated 2018)",
  "data": [
    {"molecular_target": "human PDE4D3 (PDE4D) (Homo sapiens (Human), UniProt Q08499)", "sequence (Q08499 other isoform, or with tags, fused parts or gaps)": "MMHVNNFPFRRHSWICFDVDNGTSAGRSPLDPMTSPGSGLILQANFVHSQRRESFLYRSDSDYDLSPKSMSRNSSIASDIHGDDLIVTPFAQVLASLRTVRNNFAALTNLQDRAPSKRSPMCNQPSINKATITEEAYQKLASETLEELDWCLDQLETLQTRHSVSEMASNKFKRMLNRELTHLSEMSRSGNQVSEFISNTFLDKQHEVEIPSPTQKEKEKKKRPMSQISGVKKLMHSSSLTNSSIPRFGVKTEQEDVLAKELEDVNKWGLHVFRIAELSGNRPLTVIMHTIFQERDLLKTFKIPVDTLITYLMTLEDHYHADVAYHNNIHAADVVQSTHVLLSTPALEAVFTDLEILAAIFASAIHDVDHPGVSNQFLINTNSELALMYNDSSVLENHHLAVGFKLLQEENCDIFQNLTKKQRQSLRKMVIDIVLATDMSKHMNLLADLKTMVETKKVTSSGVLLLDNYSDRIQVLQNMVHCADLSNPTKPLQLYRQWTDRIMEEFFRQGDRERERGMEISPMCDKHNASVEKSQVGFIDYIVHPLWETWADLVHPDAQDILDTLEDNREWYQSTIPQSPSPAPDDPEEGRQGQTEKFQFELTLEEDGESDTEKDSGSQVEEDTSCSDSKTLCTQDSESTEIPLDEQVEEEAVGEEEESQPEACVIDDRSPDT", "experiment": "Phosphodiesterase (PDE)4 inhibitory activity evaluation test ([3H]cAMP hydrolysis by PDE4D enzyme solution)", "format": "biochemical", "settings": "recombinant human PDE4D3 expressed in COS-7 cells; [3H]cAMP substrate; 10 min at 30° C.; 2% DMSO", "from_the_text": "Phosphodiesterase (PDE)4 Inhibitory Activity Evaluation Test\n(1) Large Scale Plasmid Preparation\nPlasmid containing genes (HPDE4D) coding for human PDE4D3 cDNA (stored in Otsuka America Pharmaceutical, Inc., Maryland Research Laboratories) was transformed in E. coli, cultured on a large scale, and purified using an EndoFree™ Plasmid Maxi Kit (Qiagen).\n(2) Abundant Expression and Purification of PDE4D\nCOS-7 cells derived from African green monkey kidneys were passage cultured in D-MEM media containing 100 units/ml penicillin, 100 μg/ml streptomycin, and 10% FBS. The cells were transfected with the plasmid prepared in (1) above using Lipofectamine™ 2000 (hereinafter referred to as “LF2000”, Invitrogen), following the manufacturer's protocol. The COS-7 cells were inoculated in a 10 cm culture dish on the previous day so as to be 90% confluent on the day of transfection. Culture dishes each containing a plasmid solution (solution A) in which 24 μg of plasmid was diluted in 1.5 ml Opti-MEM I Reduced Serum Medium (Invitrogen) and an LF2000 solution (solution B) in which 60 μl of LF2000 was diluted in 1.5 ml Opti-MEM I Reduced Serum Medium were separately allowed to stand for 5 minutes at room temperature. Solutions A and B were then mixed and the mixture was allowed to stand for 20 minutes at room temperature. The mixture was added to the cultured cells, and incubated at 37° C. (5% CO2) overnight. On the following day, the medium was replaced, and the mixture was further incubated overnight to harvest the cells in the following manner. The cells were washed with PBS (Sigma) once, and 10 ml of a Trypsin-EDTA solution (Sigma) was added to each culture dish. After the solution was distributed to each of the culture dishes, the cells were detached, and the dishes were allowed to stand for about 5 minutes at 37° C. The detached cells from the dishes were suspended in media, collected into centrifuge tubes, and centrifuged at 1200 rpm for 5 minutes at 4° C., and supernatants were removed. The cells were further washed with PBS, and stored at −80° C. KHEM buffer (100 mM Hepes, 50 mM KCl, 10 mM EGTA, 1.92 mM MgCl2, pH 7.4) containing 1 mM DTT, 1 μg/ml antipain, 1 μg/ml aprotinin, 1 μg/ml leupeptin, 1 μg/ml pepstatin A, 157 μg/ml benzamidine, and 120 μg/ml Pefabloc SC was added to the stored cells, and the contents were moved to a glass homogenizer to be homogenized on ice. The cell suspension was centrifuged at 1000 rpm for 5 minutes at 4° C., and the supernatant was further centrifuged at 14000 rpm for one hour. After centrifugation, the supernatant was dispensed into new tubes as PDE4D enzyme solutions, and stored in a deep freezer.\n(3) Determination on Dilution Ratio of PDE4D Enzyme Solutions\nThe PDE4D enzyme solutions prepared in (2) above were dissolved in 20 mM Tris-HCl solution (pH 7.4) to give 10-, 25-, 50-, 100-, 200-, 400-, and 800-fold dilutions of the enzyme solutions. PDE4D activities were measured according to (4) below. The percentage of catalyzed cAMP to total cAMP was calculated, and such a dilution, in which the percentage was between 10% and 30%, was adopted in the inhibitory study below.\n(4) Measurement of PDE4D Inhibitory Activity\nNecessary amounts of test compounds were weighed, and 100% dimethylsulfoxide (DMSO) was added thereto to adjust the concentration to 10 mM. The solutions were stored in a freezer as stock solutions of each test compound. After being thawed when required, the solutions were diluted 20-fold with 100% DMSO to give a 500 μM concentration. Further, 10-fold serial dilutions were made with 100% DMSO to prepare test compounds of different concentrations. 2 μl of solutions containing one of each of the test compound were separately added into 1.2 ml tubes in which 23 μl of 20 mM Tris-HCl (pH 7.4) had been placed beforehand. […]", "units": {"IC50": "nM"}, "values": [
      {"smiles": "C=CCCOc1cc(-c2nc(CNC(=O)c3ncccc3C)co2)ccc1OC(F)F", "note": "[Example 343, N-[2-(3-but-3-enyloxy-4-difluoromethoxyphenyl)oxazol-4-ylmethyl]-3-methylpicolinamide]", "IC50": "< 50"},
      {"smiles": "CCOc1cc(-c2nc(CCC(=O)c3ccc(F)cc3OC(C)C)co2)ccc1OC", "note": "[Example 305, 3-[2-(3-ethoxy-4-methoxyphenyl)oxazol-4-yl]-1-(4-fluoro-2-isopropoxyphenyl)propan-1-one]", "IC50": "< 50"},
      {"smiles": "COc1ccc(-c2nc(CCC(=O)c3ncccc3C)co2)cc1OCC1CCC1", "note": "[Example 141, 3-[2-(3-cyclobutylmethoxy-4-methoxyphenyl)oxazol-4-yl]-1-(3-methylpyridin-2-yl)propan-1-one]", "IC50": "< 50"},
      {"smiles": "CCOc1cc(-c2nc(CCC(=O)c3ncccc3C)co2)ccc1OC", "note": "[Example 138, 3-[2-(3-ethoxy-4-methoxyphenyl)oxazol-4-yl]-1-(3-methylpyridin-2-yl)propan-1-one]", "IC50": "< 50"},
      {"smiles": "COc1ccc(-c2nc(CCC(=O)c3ccccc3OCC(F)F)co2)cc1OC(C)C", "note": "[Example 278, 1-[2-(2,2-difluoroethoxy)phenyl]-3-[2-(3-isopropoxy-4-methoxyphenyl)oxazol-4-yl]propan-1-one]", "IC50": "< 50"},
      {"smiles": "Cc1cccnc1C(=O)CCc1coc(-c2ccc(OC(F)F)c(OC(C)C)c2)n1", "note": "[Example 332, 3-[2-(4-difluoromethoxy-3-isopropoxyphenyl)oxazol-4-yl]-1-(3-methylpyridin-2-yl)propan-1-one]", "IC50": "< 50"},
      {"smiles": "COc1ccc(-c2nc(CNC(=O)c3ncccc3C)co2)cc1OCC1CC1", "note": "[Example 36, N-[2-(3-cyclopropylmethoxy-4-methoxyphenyl)oxazol-4-ylmethyl]-3-methylpicolinamide]", "IC50": "< 50"},
      {"smiles": "CCCOc1cc(-c2nc(CNC(=O)c3ncccc3C)co2)ccc1OC(F)F", "note": "[Example 340, N-[2-(4-difluoromethoxy-3-propoxyphenyl)oxazol-4-ylmethyl]-3-methylpicolinamide]", "IC50": "< 50"},
      {"smiles": "CCCOc1cc(-c2nc(CCC(=O)c3ncccc3C)co2)ccc1OC(F)F", "note": "[Example 329, 3-[2-(4-difluoromethoxy-3-propoxyphenyl)oxazol-4-yl]-1-(3-methylpyridin-2-yl)propan-1-one]", "IC50": "< 50"},
      {"smiles": "COc1ccc(-c2nc(CNC(=O)c3ccccc3OCC(F)(F)F)co2)cc1OCC1CC1", "note": "[Example 32, N-[2-(3-cyclopropylmethoxy-4-methoxyphenyl)oxazol-4-ylmethyl]-2-(2,2,2-trifluoroethoxy)benzamide]", "IC50": "< 50"},
      {"smiles": "C=CCOc1cc(-c2nc(CNC(=O)c3ncccc3C)co2)ccc1OC(F)F", "note": "[Example 339, N-[2-(3-allyloxy-4-difluoromethoxyphenyl)oxazol-4-ylmethyl]-3-methylpicolinamide]", "IC50": "< 50"},
      {"smiles": "COc1ccc(-c2nc(CNC(=O)c3ncccc3C)co2)cc1OC(C)C", "note": "[Example 384, N-[2-(4-methoxy-3-isopropoxyphenyl)oxazol-4-ylmethyl]-3-methylpicolinamide]", "IC50": "< 50"},
      {"smiles": "C=CCCOc1cc(-c2nc(CCC(=O)c3ncccc3C)co2)ccc1OC", "note": "[Example 146, 3-[2-(3-(3-butenyloxy)-4-methoxyphenyl)oxazol-4-yl]-1-(3-methylpyridin-2-yl)propan-1-one]", "IC50": "< 50"},
      {"smiles": "Cc1cccnc1C(=O)NCc1coc(-c2ccc(OC(F)F)c(OCC3CCC3)c2)n1", "note": "[Example 345, N-[2-(3-cyclobutylmethoxy-4-difluoromethoxyphenyl)oxazol-4-ylmethyl]-3-methyl picolinamide]", "IC50": "< 50"},
      {"smiles": "C=CCOc1cc(-c2nc(CCC(=O)c3ncccc3C)co2)ccc1OC(F)F", "note": "[Example 330, 3-[2-(3-allyloxy-4-difluoromethoxyphenyl)oxazol-4-yl]-1-(3-methylpyridin-2-yl)propan-1-one]", "IC50": "< 50"},
      {"smiles": "C=CCOc1ccccc1C(=O)CCc1coc(-c2ccc(OC)c(OC(C)C)c2)n1", "note": "[Example 224, 1-(2-allyloxyphenyl)-3-[2-(3-isopropoxy-4-methoxyphenyl)oxazol-4-yl]propan-1-one]", "IC50": "< 50"},
      {"smiles": "COc1ccc(-c2nc(CNC(=O)c3ccccc3SC)co2)cc1OCC1CC1", "note": "[Example 44, N-[2-(3-cyclopropylmethoxy-4-methoxyphenyl)oxazol-4-ylmethyl]-2-methylsulfanylbenzamide]", "IC50": "< 50"},
      {"smiles": "CCC(CC)Oc1cc(-c2nc(CNC(=O)c3ncccc3C)co2)ccc1OC", "note": "[Example 324, N-{2-[3-(1-ethylpropoxy)-4-methoxyphenyl]oxazol-4-ylmethyl}-3-methylpicolinamide]", "IC50": "< 50"},
      {"smiles": "CCOc1ccccc1C(=O)CCc1coc(-c2ccc(OC)c(OCCF)c2)n1", "note": "[Example 315, 1-(2-ethoxyphenyl)-3-{2-[3-(2-fluoroethoxy)-4-methoxyphenyl]oxazol-4-yl}propan-1-one]", "IC50": "< 50"},
      {"smiles": "CCOc1ccc(-c2nc(CCC(=O)c3ccc(F)cc3OCC)co2)cc1OCC", "note": "[Example 299, 3-[2-(3,4-diethoxyphenyl)oxazol-4-yl]-1-(2-ethoxy-4-fluorophenyl)propan-1-one]", "IC50": "< 50"},
      {"smiles": "CCOc1ccc(-c2nc(CCC(=O)c3ncccc3C)co2)cc1OCC", "note": "[Example 181, 3-[2-(3,4-diethoxyphenyl)oxazol-4-yl]-1-(3-methylpyridin-2-yl)propan-1-one]", "IC50": "< 50"},
      {"smiles": "CCOc1cc(-c2nc(CNC(=O)c3ncccc3C)co2)ccc1OC(F)F", "note": "[Example 338, N-[2-(4-difluoromethoxy-3-ethoxyphenyl)-oxazol-4-ylmethyl]-3-methylpicolinamide]", "IC50": "< 50"},
      {"smiles": "CCOc1cc(-c2nc(CCC(=O)c3ncccc3C)co2)ccc1OC(F)F", "note": "[Example 333, 3-[2-(4-difluoromethoxy-3-ethoxyphenyl)oxazol-4-yl]-1-(3-methylpyridin-2-yl)propan-1-one]", "IC50": "< 50"},
      {"smiles": "CCOc1ccccc1C(=O)NCc1coc(-c2ccc(OC(F)F)c(OCC(F)F)c2)n1", "note": "[Example 382, N-{2-[4-difluoromethoxy-3-(2,2-difluoroethoxy)phenyl]-oxazol-4-ylmethyl}-2-ethoxy benzamide]", "IC50": "< 50"},
      {"smiles": "CCOc1cccnc1C(=O)CCc1coc(-c2ccc(OC)c(OC3CCCC3)c2)n1", "note": "[Example 132, 3-[2-(3-cyclopentyloxy-4-methoxyphenyl)oxazol-4-yl]-1-(3-ethoxypyridin-2-yl)propan-1-one]", "IC50": "< 50"},
      {"smiles": "COc1ccc(-c2nc(CCC(=O)c3ncccc3C)co2)cc1OCC1CC1", "note": "[Example 137, 3-[2-(3-cyclopropylmethoxy-4-methoxyphenyl)oxazol-4-yl]-1-(3-methylpyridin-2-yl)propan-1-one]", "IC50": "< 50"},
      {"smiles": "C=CCOc1cc(-c2nc(CCC(=O)c3ccccc3OCC)co2)ccc1OC(F)F", "note": "[Example 335, 3-[2-(3-allyloxy-4-difluoromethoxyphenyl)oxazol-4-yl]-1-(2-ethoxyphenyl)propan-1-one]", "IC50": "< 50"},
      {"smiles": "COc1ccc(-c2nc(CCC(=O)c3ccccc3OC)co2)cc1OC(C)C", "note": "[Example 169, 3-[2-(3-isopropoxy-4-methoxyphenyl)oxazol-4-yl]-1-(2-methoxyphenyl)propan-1-one]", "IC50": "< 50"},
      {"smiles": "CCC(C)Oc1cc(-c2nc(CCC(=O)c3ncccc3C)co2)ccc1OC", "note": "(stereo not drawn) [Example 311, 3-[2-(3-sec-butoxy-4-methoxyphenyl)oxazol-4-yl]-1-(3-methylpyridin-2-yl)propan-1-one]", "IC50": "< 50"},
      {"smiles": "CCOc1ccc(-c2nc(CCC(=O)c3ccccc3OCC)co2)cc1OCC", "note": "[Example 182, 3-[2-(3,4-diethoxyphenyl)oxazol-4-yl]-1-(2-ethoxyphenyl)propan-1-one]", "IC50": "< 50"}
    ]}
  ]
}
